Data reported in patent US7858394B2, “Test methods for determining the intracellular concentration of cyclic nucleotides” (Axxam SpA, priority 2003, dated 2010).

Tests used:
[1] = tested on: β-adrenergic receptor
Procedure: (§1) The cells are seeded for the measurements on 384-well microtitre plates (MTPs) at 1500 cells per well and on 1536-well MTPs at 250 cells per well. After 1-2 days of growth at 37° C./5% CO2, the cell culture medium (DMEM/F12 containing 10% foetal calf serum) is removed and the cells are charged with coelenterazine (0.8 μg/ml) in calcium-free Tyrode's at 37° C./5% CO2 for 3 h. Subsequently, test substances and appropriate control substances (e.g. SIN-1 or isoprenaline) are added in calcium-free Tyrode's and incubated on the cells for 5-10 min. The extra measurement is then carried out in a light-tight box by adding calcium-containing Tyrode's via a comb (final calcium concentration: 3 mM), with the aid of a charge-coupled device camera.
To measure the effects of substances directly, the cells are charged with coelenterazine in calcium-containing Tyrode's. The substances are then added within the light-tight box and measurement commences immediately with addition of the substances (FIG. 5).
If the cells are charged with coelenterazine in calcium-containing Tyrode's, the agonist isoprenaline may also be added directly to the cells within the light-tight box.

[2] = tested on: soluble guanylate cyclase; assay: Luminescence measurement of intracellular cGMP in a cell line expressing the CNG2 channel, a calcium-sensitive photoprotein and soluble guanylate cyclase; type: cell-based; details: dose-dependent; RLUs measured for 1 min; FIG. 2
Procedure: as §1

time until luminescence signal is observed after addition of agonist ([1]; cells charged with coelenterazine in calcium-containing Tyrode's, agonist 10^-6 M added directly within the light-tight box, FIG. 5)	luminescence signal (intracellular cAMP concentration) after activation of the β-adrenergic receptor ([1]; dose-dependent, 10 min incubation in calcium-free Tyrode's, measurement started by adding calcium, 0, 10^-7 M, 10^-6 M, FIG. 4)	Compound	luminescence signal (intracellular cGMP concentration) after activation of soluble guanylate cyclase [2]
within a few seconds	enhanced lumiscence signal	CC(C)NCC(O)c1ccc(O)c(O)c1 (stereo not drawn) [isoprenaline]	–
–	–	[NH-]c1c[n+](N2CCOCC2)no1 [SIN-1]	enhanced luminescence signal
